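Five compound concentrations were applied to cells in 96-well plates for 48 hours; endpoints were derived by simple linear interpolation of the resulting dose-response curve. The concentration for 50% growth inhibition is given as GI50.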 Activity calls are given as the source filed them. Rule as the data show it: active = GI50 up to about 1.1 µM and inactive = higher.
Assays:
Experiment in all cases: NCI anticancer screen, dose series, 48 h
EKVX = system: EKVX
OVCAR-5 = system: OVCAR-5
MOLT-4 = system: MOLT-4
TK-10 = system: TK-10
M14 = system: M14
IGROV-1 = system: IGROV-1
SNB-19 = system: SNB-19
HOP-92 = system: HOP-92
RPMI-8226 = system: RPMI-8226
SNB-75 = system: SNB-75
K562 = system: K562
SF-539 = system: SF-539
HCC 2998 = system: HCC 2998
CCRF-CEM = system: CCRF-CEM
NCI-H23 = system: NCI-H23
OVCAR-3 = system: OVCAR-3
NCI-H522 = system: NCI-H522
U-251 = system: U-251
UACC-62 = system: UACC-62
OVCAR-4 = system: OVCAR-4

Measured: GI50

COC(=O)N/N=C(/CC1(O)C(=O)Nc2ccc([N+](=O)[O-])cc21)c1ccccc1 (stereo not given)
inactive: EKVX > 54.1 µM | OVCAR-5 > 79.6 µM | MOLT-4 24.5 µM | TK-10 24.9 µM | M14 34 µM | IGROV-1 > 46.7 µM | SNB-19 38.9 µM | HOP-92 33 µM | RPMI-8226 44.6 µM | SNB-75 23.9 µM | K562 40.7 µM | SF-539 38 µM | HCC 2998 67.1 µM | CCRF-CEM 29.6 µM | NCI-H23 21.3 µM | OVCAR-3 44.3 µM | NCI-H522 43.9 µM | U-251 29.9 µM | UACC-62 24.7 µM | OVCAR-4 47.3 µM

C=C(C)C(=O)[C@@]12C(=O)[C@@H](C)CC[C@H]1[C@H](C)C[C@@H]2C=C(C)C
inactive: EKVX 30.5 µM | OVCAR-5 28.4 µM | MOLT-4 15.8 µM | TK-10 47.6 µM | M14 55.6 µM | IGROV-1 27.5 µM | SNB-19 12.6 µM | HOP-92 25.8 µM | RPMI-8226 27.9 µM | SNB-75 34.8 µM | K562 29.6 µM | SF-539 19.9 µM | HCC 2998 14.8 µM | CCRF-CEM 23.1 µM | NCI-H23 15.4 µM | OVCAR-3 19.5 µM | NCI-H522 14.6 µM | U-251 23.6 µM | UACC-62 22.9 µM | OVCAR-4 28.8 µM

COc1ccc(C2C(=O)c3ccc(OC)cc3OC2c2cccnc2)cc1 (stereo not given)
inactive: EKVX > 100 µM | OVCAR-5 > 100 µM | MOLT-4 > 100 µM | TK-10 46.7 µM | M14 > 100 µM | IGROV-1 > 100 µM | SNB-19 92.7 µM | HOP-92 22.5 µM | RPMI-8226 > 100 µM | SNB-75 34.8 µM | K562 > 100 µM | SF-539 > 100 µM | HCC 2998 > 100 µM | CCRF-CEM > 100 µM | NCI-H23 > 100 µM | OVCAR-3 > 100 µM | NCI-H522 > 100 µM | U-251 70.3 µM | UACC-62 > 100 µM | OVCAR-4 > 100 µM

Source: ChEMBL document CHEMBL1201862, “PubChem BioAssay data set” (2004)
